The source of these data is ChEMBL document CHEMBL1201862, “PubChem BioAssay data set” (2004).

Each structure is given as a SMILES string.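 Method: 48-hour compound exposure of cells in 96-well plates, five concentrations, linear interpolation of endpoints. Here, GI50 denotes the concentration required for 50% inhibition of growth.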 Calls of active or inactive are those of the source. No stated cut-off is given here; in the data, active = GI50 up to about 1.1 µM and inactive = higher.

Among the test systems are UACC-257; U-251; NCI-H460; SW-620; OVCAR-3; PC-3; SK-OV-3; 786-0; OVCAR-5; HCC 2998; OVCAR-4; HCT-116; NCI-H226; COLO 205; HOP-62; MDA-MB-231; SR; SF-295; TK-10.
What all share (assay): NCI anticancer screen, dose series, 48 h

`CN(C(=O)C1=CCC2(CC1)OCCO2)c1ccccc1OS(=O)(=O)C(F)(F)F`: the GI50 in the test with UACC-257 is > 100 µM (inactive); in the test with U-251, > 100 µM (inactive); in the test on NCI-H460, 85.3 µM (inactive); in the test on SW-620 it was > 100 µM (inactive); in the test with OVCAR-3, > 100 µM (inactive); with PC-3 it was > 100 µM (inactive). In addition, the GI50 in the test on SK-OV-3 is > 100 µM (inactive); with 786-0 it was 24.3 µM (inactive); with OVCAR-5, > 100 µM (inactive); in the test on HCC 2998 it was > 100 µM (inactive); in the test on OVCAR-4 it was 57.8 µM (inactive); in the test on HCT-116, > 100 µM (inactive). The GI50 is 16.2 µM (inactive) in the test with NCI-H226; > 100 µM (inactive) in the test on COLO 205; 27.4 µM (inactive) in the test on HOP-62; > 100 µM (inactive) with MDA-MB-231; > 100 µM (inactive) in the test with SR; 90.2 µM (inactive) in the test with SF-295.

Regarding `CC(C)OC(=O)/C=C/C(=O)O/C=C/[N+](=O)[O-]`, the GI50 with UACC-257 was 19.9 µM (inactive); in the test with U-251, 21.7 µM (inactive); with NCI-H460 it was 60.7 µM (inactive); in the test on SW-620, 25.4 µM (inactive); in the test with OVCAR-3 it was 31.7 µM (inactive); with PC-3, 26.6 µM (inactive). Also, the GI50 in the test on SK-OV-3 is 66.8 µM (inactive); in the test on 786-0, 29.2 µM (inactive); in the test with OVCAR-5, 37.6 µM (inactive); with HCC 2998, 20.5 µM (inactive); in the test with OVCAR-4, 26.9 µM (inactive); in the test on HCT-116, 17.7 µM (inactive). The GI50 with NCI-H226 is 39.9 µM (inactive); in the test on COLO 205, 16.6 µM (inactive); in the test with HOP-62 it was 34 µM (inactive); in the test with MDA-MB-231, 36.5 µM (inactive); in the test with TK-10 it was 32.6 µM (inactive); in the test with SR it was 24.4 µM (inactive). For the same compound, the GI50 in the test with SF-295 is 27.9 µM (inactive).

Turning to `O=Cc1c(-c2ccccc2)nc2ccccc2c1O`, the GI50 in the test on UACC-257 was 72.8 µM (inactive); in the test on U-251, 74.3 µM (inactive); with NCI-H460, 48.2 µM (inactive); in the test with SW-620 it was 50.6 µM (inactive); in the test with OVCAR-3, 49.8 µM (inactive); in the test with PC-3 it was 36.5 µM (inactive). For the same compound, the GI50 in the test with SK-OV-3 is > 100 µM (inactive); in the test with 786-0, 49.2 µM (inactive); with OVCAR-5, > 100 µM (inactive); in the test on HCC 2998 it was 58.5 µM (inactive); in the test with OVCAR-4, > 100 µM (inactive); in the test on HCT-116 it was 41.9 µM (inactive). The GI50 with NCI-H226 is > 100 µM (inactive); with COLO 205 it was 26.7 µM (inactive); in the test on HOP-62, 92.7 µM (inactive); in the test with MDA-MB-231, 64.6 µM (inactive); in the test with TK-10 it was > 100 µM (inactive); with SR, < 0.01 µM (active). Also, in the test with SF-295, the GI50 was 97.9 µM (inactive).

Regarding `Clc1cccc(Cl)c1C1SCc2nc3ncccc3n21` (configuration not stated), the GI50 with UACC-257 was > 100 µM (inactive); in the test on U-251 it was > 100 µM (inactive); in the test with NCI-H460, > 100 µM (inactive); in the test on SW-620 it was > 100 µM (inactive); with OVCAR-3, 44.1 µM (inactive); with PC-3, > 100 µM (inactive). The GI50 with SK-OV-3 is > 100 µM (inactive); with 786-0 it was > 100 µM (inactive); with OVCAR-5 it was > 100 µM (inactive); in the test with HCC 2998, > 100 µM (inactive); in the test on OVCAR-4, 52.2 µM (inactive); in the test on HCT-116 it was 94.6 µM (inactive). In addition, the GI50 with NCI-H226 was 66.8 µM (inactive); in the test on COLO 205, > 100 µM (inactive); in the test on HOP-62 it was > 100 µM (inactive); with MDA-MB-231 it was 19 µM (inactive); in the test with TK-10 it was > 100 µM (inactive); in the test on SR, > 100 µM (inactive). In addition, in the test on SF-295, the GI50 is > 100 µM (inactive).

Consider `O=C(O)c1nc2ccc(C(F)(F)F)cc2nc1Nc1ccc(F)cc1`, for which the GI50 in the test on UACC-257 is 22.3 µM (inactive); in the test on U-251 it was 7.38 µM (inactive); with NCI-H460, 16.1 µM (inactive); with SW-620, 23.6 µM (inactive); in the test on OVCAR-3, 12.2 µM (inactive); in the test on PC-3, 15 µM (inactive). The GI50 is 20 µM (inactive) with 786-0; 28.4 µM (inactive) with OVCAR-5; 15.7 µM (inactive) in the test on HCC 2998; 22.6 µM (inactive) in the test on OVCAR-4; 15.1 µM (inactive) in the test with HCT-116; 18.1 µM (inactive) in the test on NCI-H226. The GI50 was 19.5 µM (inactive) in the test on COLO 205; 17.1 µM (inactive) in the test with HOP-62; 25.1 µM (inactive) with MDA-MB-231; 36.6 µM (inactive) with TK-10; 12.1 µM (inactive) with SR; 11.5 µM (inactive) in the test with SF-295.

Turning to `CC(C)=CC[C@]12CCN(C)[C@H]1N(S(=O)(=O)c1ccccc1)c1ccccc12`, the GI50 is > 39.5 µM (inactive) with UACC-257; 32.7 µM (inactive) with U-251; > 40.4 µM (inactive) with NCI-H460; > 60.3 µM (inactive) in the test with SW-620; > 41 µM (inactive) in the test on OVCAR-3; > 54 µM (inactive) in the test with PC-3. Besides, the GI50 is 6.25 µM (inactive) in the test on SK-OV-3; 42.3 µM (inactive) with 786-0; > 59.8 µM (inactive) in the test with OVCAR-5; > 40.1 µM (inactive) in the test with HCC 2998; 43.6 µM (inactive) in the test with OVCAR-4; > 44.6 µM (inactive) in the test with HCT-116. Besides, the GI50 in the test on NCI-H226 was > 38.5 µM (inactive); in the test with HOP-62 it was > 45.4 µM (inactive); in the test with MDA-MB-231, > 52.4 µM (inactive); in the test with TK-10 it was > 55.5 µM (inactive); in the test with SR, 20.7 µM (inactive); with SF-295, > 54.7 µM (inactive).

As for `O=c1c(Br)c(-c2ccccc2)[s+]([O-])c2ccccc12` (configuration not stated), the GI50 was 12.9 µM (inactive) in the test with UACC-257; 8.07 µM (inactive) in the test with U-251; 17.9 µM (inactive) in the test on NCI-H460; 16.7 µM (inactive) in the test on SW-620; 10.4 µM (inactive) with OVCAR-3; 7.78 µM (inactive) with PC-3. In addition, the GI50 in the test on SK-OV-3 is 17.7 µM (inactive); in the test on 786-0, 2.7 µM (inactive); with OVCAR-5, 21.5 µM (inactive); in the test with HCC 2998 it was 14.6 µM (inactive); in the test on OVCAR-4, 1.59 µM (inactive); in the test on HCT-116, 5.9 µM (inactive). The GI50 with NCI-H226 is 15.8 µM (inactive); with COLO 205 it was 1.89 µM (inactive); in the test with HOP-62 it was 2.43 µM (inactive); with MDA-MB-231 it was 14.8 µM (inactive); in the test on TK-10 it was 18.2 µM (inactive); with SR, 2.06 µM (inactive). Also, the GI50 with SF-295 was 17.9 µM (inactive).

For `C#C[C@]1(O)CC[C@H]2[C@@H]3CCc4cc(OC(=O)c5cccc6cc7ccccc7nc56)ccc4[C@H]3CC[C@@]21C`, the GI50 is 63.4 µM (inactive) in the test with UACC-257; 24 µM (inactive) with U-251; 23 µM (inactive) in the test with NCI-H460; 29.7 µM (inactive) in the test on SW-620; 21.4 µM (inactive) with OVCAR-3; 35.9 µM (inactive) in the test on PC-3. The GI50 is 62.1 µM (inactive) in the test on SK-OV-3; 27.5 µM (inactive) in the test with 786-0; 43.8 µM (inactive) with OVCAR-5; 29.4 µM (inactive) in the test with HCC 2998; 38.4 µM (inactive) with OVCAR-4; 24.3 µM (inactive) with HCT-116. Besides, the GI50 with NCI-H226 was 33.2 µM (inactive); with COLO 205, 11 µM (inactive); in the test on HOP-62, 38.2 µM (inactive); with MDA-MB-231, 25.6 µM (inactive); in the test on SR, 5.52 µM (inactive).

In the case of `CCOC(=O)CCN1C(=O)c2ccc(NC(=O)C(=O)O)cc2S1(=O)=O`, the GI50 in the test with UACC-257, with U-251, with NCI-H460, with SW-620, in the test with OVCAR-3 and in the test with PC-3 was > 100 µM (inactive) in each case. Further, the GI50 in the test with SK-OV-3, with 786-0, in the test on OVCAR-5, in the test with HCC 2998, with OVCAR-4 and in the test on HCT-116 was > 100 µM (inactive) each time. The GI50 in the test on NCI-H226, in the test with COLO 205, with HOP-62, with MDA-MB-231, with TK-10 and in the test on SR was > 100 µM (inactive) in each case. For the same compound, the GI50 with SF-295 is > 100 µM (inactive).

`CCOc1ccc(NC(=O)C(=O)Nn2c(N)nnc2N)cc1`: the GI50 with UACC-257, in the test with U-251, in the test on NCI-H460, in the test with SW-620, in the test with OVCAR-3 and in the test on PC-3 was > 100 µM (inactive) in each case. Also, the GI50 in the test with SK-OV-3, in the test on 786-0, with OVCAR-5, in the test with HCC 2998, in the test on OVCAR-4 and in the test with HCT-116 was > 100 µM (inactive) in each case. In addition, the GI50 in the test on NCI-H226, in the test on HOP-62, in the test with MDA-MB-231, with TK-10, in the test on SR and in the test on SF-295 was > 100 µM (inactive) each time.

In the case of `CC(C)=CCN1c2ccccc2NC(=O)CC1C` (configuration not stated), the GI50 was 28.8 µM (inactive) in the test on UACC-257; > 100 µM (inactive) in the test on U-251; > 100 µM (inactive) in the test on NCI-H460; > 100 µM (inactive) in the test on SW-620; 70.6 µM (inactive) in the test with OVCAR-3; > 100 µM (inactive) in the test on PC-3. Further, the GI50 was > 100 µM (inactive) in the test on SK-OV-3; > 100 µM (inactive) in the test on 786-0; > 100 µM (inactive) with OVCAR-5; > 100 µM (inactive) in the test on HCC 2998; 28.4 µM (inactive) with OVCAR-4; > 100 µM (inactive) with NCI-H226. In addition, the GI50 with COLO 205 is > 100 µM (inactive); in the test with HOP-62, > 100 µM (inactive); in the test on MDA-MB-231, > 100 µM (inactive); in the test with TK-10, 55.8 µM (inactive); in the test on SR, 56.5 µM (inactive); in the test with SF-295 it was > 100 µM (inactive).
